# Patent US20160311831A1, “Imidazotriazinones as PDE1 Inhibitors” (H. Lundbeck A/S, priority 2015, published 2016)
# Legend:
# Format in all cases: biochemical
# PDE1A = PDE1A (Homo sapiens, UniProt P54750); test: PDE1 inhibition assay (PDE1A), SPA with tritium labelled cAMP; conditions: 15 nM tritium labelled cAMP, 1 hr at room temperature
# Method: (§1) PDE1A, PDE1B and PDE1C assays were performed as follows: the assays was performed in 60 μL samples containing a fixed amount of the PDE1 enzym1 (sufficient to convert 20-25% of the cyclic nucleotide substrate), a buffer (50 mM HEPES pH 7.6; 10 mM MgCl2; 0.02% Tween20), 0.1 mg/mL BSA, 15 nM tritium labelled cAMP and varying amounts of inhibitors. Reactions were initiated by addition of the cyclic nucleotide substrate, and reactions were allowed to proceed for 1 hr at room temperature before being terminated through mixing with 20 μL (0.2 mg) yttrium silicate SPA beads (PerkinElmer). The beads were allowed to settle for 1 hr in the dark before the plates were counted in a Wallac 1450 Microbeta counter. The measured signals were converted to activity relative to an uninhibited control (100%) and IC50 values were calculated using XIFit (model 205, IDBS).
# PDE1B = PDE1B (Homo sapiens, UniProt Q01064); test: PDE1 inhibition assay (PDE1B), SPA with tritium labelled cAMP; conditions: 15 nM tritium labelled cAMP, 1 hr at room temperature
# PDE1B, sequence (Q01064 whole entry): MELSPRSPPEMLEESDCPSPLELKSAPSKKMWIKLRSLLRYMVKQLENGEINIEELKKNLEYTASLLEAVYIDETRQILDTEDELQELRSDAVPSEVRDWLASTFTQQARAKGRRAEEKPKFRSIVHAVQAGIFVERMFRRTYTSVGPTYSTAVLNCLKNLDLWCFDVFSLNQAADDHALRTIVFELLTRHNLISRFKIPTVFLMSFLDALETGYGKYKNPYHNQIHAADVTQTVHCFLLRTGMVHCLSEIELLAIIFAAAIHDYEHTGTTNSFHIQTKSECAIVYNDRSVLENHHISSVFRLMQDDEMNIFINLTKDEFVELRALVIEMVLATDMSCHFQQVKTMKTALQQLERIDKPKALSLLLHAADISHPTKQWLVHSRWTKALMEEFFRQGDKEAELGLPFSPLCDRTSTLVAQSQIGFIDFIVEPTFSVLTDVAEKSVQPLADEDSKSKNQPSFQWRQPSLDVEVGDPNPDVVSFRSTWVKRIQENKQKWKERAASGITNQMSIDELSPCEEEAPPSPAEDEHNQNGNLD
# Method: as §1
# PDE9 = PDE9 (Homo sapiens, UniProt O76083); test: PDE9 inhibition assay, SPA with 3H-cAMP; conditions: compound at 10 microM; 10 nM 3H-cAMP, 1 hr incubation
# PDE9, sequence (O76083 whole entry): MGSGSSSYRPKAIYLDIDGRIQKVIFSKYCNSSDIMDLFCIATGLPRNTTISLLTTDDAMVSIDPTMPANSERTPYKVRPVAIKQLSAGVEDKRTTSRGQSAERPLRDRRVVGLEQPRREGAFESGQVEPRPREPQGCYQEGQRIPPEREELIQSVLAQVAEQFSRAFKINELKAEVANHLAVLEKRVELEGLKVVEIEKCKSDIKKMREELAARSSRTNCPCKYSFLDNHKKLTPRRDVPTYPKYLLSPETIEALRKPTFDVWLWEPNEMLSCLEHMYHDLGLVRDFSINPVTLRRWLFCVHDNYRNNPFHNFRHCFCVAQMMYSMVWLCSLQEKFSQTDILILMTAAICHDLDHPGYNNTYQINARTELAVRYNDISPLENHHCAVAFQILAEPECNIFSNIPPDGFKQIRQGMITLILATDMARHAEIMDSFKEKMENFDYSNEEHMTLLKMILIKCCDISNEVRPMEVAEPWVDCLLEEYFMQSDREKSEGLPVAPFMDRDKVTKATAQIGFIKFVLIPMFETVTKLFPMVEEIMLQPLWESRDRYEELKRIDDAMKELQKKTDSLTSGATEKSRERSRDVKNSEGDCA
# Method: A PDE9 assay may for example, be performed as follows: The assay is performed in 60 μL samples containing a fixed amount of the relevant PDE enzyme (sufficient to convert 20-25% of the cyclic nucleotide substrate), a buffer (50 mM HEPES7.6; 10 mM MgCl2; 0.02% Tween20), 0.1 mg/mL BSA, 225 pCi of ^3H-labelled cyclic nucleotide substrate, tritium labeled cAMP to a final concentration of 5 nM and varying amounts of inhibitors. Reactions are initiated by addition of the cyclic nucleotide substrate, and reactions are allowed to proceed for one hr at room temperature before being terminated through mixing with 15 μL 8 mg/mL yttrium silicate SPA beads (Amersham). The beads are allowed to settle for one hr in the dark before the plates are counted in a Wallac 1450 Microbeta counter. The measured signal can be converted to activity relative to an uninhibited control (100%) and IC50 values can be calculated using the Xlfit extension to EXCEL.
# In the context of the present invention the assay was performed in 60 uL assay buffer (50 mM HEPES pH 7.6; 10 mM MgCl2; 0.02% Tween20) containing enough PDE9 to convert 20-25% of 10 nM ^3H-cAMP and varying amounts of inhibitors. Following a 1 hr incubation the reactions were terminated by addition of 15 uL 8 mg/mL yttrium silicate SPA beads (Amersham). The beads were allowed to settle for one hr in the dark before the plates were counted in a Wallac 1450 Microbeta counter.
# PDE1C = PDE1C (Homo sapiens, UniProt Q14123); test: PDE1 inhibition assay (PDE1C), SPA with tritium labelled cAMP; conditions: 15 nM tritium labelled cAMP, 1 hr at room temperature
# PDE1C, sequence (Q14123 whole entry): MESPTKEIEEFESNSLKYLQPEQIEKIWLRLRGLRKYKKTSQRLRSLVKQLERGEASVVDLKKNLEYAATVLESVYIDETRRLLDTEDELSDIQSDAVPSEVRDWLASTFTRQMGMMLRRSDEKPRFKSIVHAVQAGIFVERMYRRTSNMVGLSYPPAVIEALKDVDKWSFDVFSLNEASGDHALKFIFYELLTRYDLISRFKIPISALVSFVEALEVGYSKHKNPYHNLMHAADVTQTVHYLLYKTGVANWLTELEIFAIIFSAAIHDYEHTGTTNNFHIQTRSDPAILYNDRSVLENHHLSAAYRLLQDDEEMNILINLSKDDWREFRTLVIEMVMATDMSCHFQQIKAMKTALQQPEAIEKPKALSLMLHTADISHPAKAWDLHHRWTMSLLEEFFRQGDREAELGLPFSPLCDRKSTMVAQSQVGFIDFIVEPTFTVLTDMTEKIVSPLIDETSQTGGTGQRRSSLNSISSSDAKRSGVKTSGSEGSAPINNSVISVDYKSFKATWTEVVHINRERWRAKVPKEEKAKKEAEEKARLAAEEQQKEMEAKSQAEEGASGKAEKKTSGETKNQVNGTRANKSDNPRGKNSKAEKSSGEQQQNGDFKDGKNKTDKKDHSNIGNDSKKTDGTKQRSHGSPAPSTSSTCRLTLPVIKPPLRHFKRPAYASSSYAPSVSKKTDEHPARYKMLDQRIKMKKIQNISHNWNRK
# Method: as §1
# PDE1A, sequence (P54750 whole entry): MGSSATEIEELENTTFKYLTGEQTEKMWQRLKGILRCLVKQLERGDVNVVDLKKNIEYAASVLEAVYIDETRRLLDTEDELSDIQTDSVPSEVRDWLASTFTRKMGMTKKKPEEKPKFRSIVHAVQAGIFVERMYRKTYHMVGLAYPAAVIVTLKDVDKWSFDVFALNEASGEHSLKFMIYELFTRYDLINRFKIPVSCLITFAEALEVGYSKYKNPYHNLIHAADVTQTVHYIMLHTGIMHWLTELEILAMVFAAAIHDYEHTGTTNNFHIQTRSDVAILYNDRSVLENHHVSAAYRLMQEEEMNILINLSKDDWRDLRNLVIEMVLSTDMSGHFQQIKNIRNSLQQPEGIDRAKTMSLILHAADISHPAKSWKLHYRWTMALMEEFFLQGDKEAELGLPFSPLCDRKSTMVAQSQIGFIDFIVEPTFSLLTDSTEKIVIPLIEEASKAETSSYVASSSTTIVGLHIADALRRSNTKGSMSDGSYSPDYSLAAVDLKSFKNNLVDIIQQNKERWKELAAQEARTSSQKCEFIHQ
Compound,IC50 (PDE1A),IC50 (PDE1B),% inhibition of PDE9 at 10 microM (PDE9),IC50 (PDE1C),inhibition at 10 µM (PDE9)
"Cc1ccc(Cc2nn3c(C4CCOCC4)ncc3c(=O)n2CC2CCC(C)CC2)cc1 (single isomer, unassigned) [11 Stereoisomer 1]",43 nM,33 nM,−9%,69 nM,
"Cc1ccc(Cc2nn3c(C4CCOCC4)ncc3c(=O)n2CC2CCC(C)CC2)cc1 (single isomer, unassigned) [11 Stereoisomer 2]",8 nM,10 nM,15%,5 nM,
"Cc1ccc(Cc2nn3c(C4CCOCC4)ncc3c(=O)n2CC2CCOC2)cc1 (single isomer, unassigned) [12 Stereoisomer 1]",,258 nM,3%,105 nM,
"Cc1ccc(Cc2nn3c(C4CCOCC4)ncc3c(=O)n2CC2CCOC2)cc1 (single isomer, unassigned) [12 Stereoisomer 2]",100 nM,67 nM,7%,151 nM,
"Cc1nn2c(C3CCOCC3)ncc2c(=O)n1CC1CCCCC1 [Example 1, 3-(Cyclohexylmethyl)-2-methyl-7-(tetrahydro-2H-pyran-4-yl)imidazo[5,1-f][1,2,4]triazin-4(3H)-one]",15 nM,30 nM,,9 nM,26%
"Cc1ccc(Cc2nn3c(C4CCOCC4)ncc3c(=O)n2C)cc1 [Example 2, 3-Methyl-2-(4-methylbenzyl)-7-(tetrahydro-2H-pyran-4-yl)imidazo[5,1-f][1,2,4]triazin-4(3H)-one]",732 nM,258 nM,,984 nM,4%
"CCn1c(Cc2ccc(C)cc2)nn2c(C3CCOCC3)ncc2c1=O [Example 3, 3-Ethyl-2-(4-methylbenzyl)-7-(tetrahydro-2H-pyran-4-yl)imidazo[5,1-f][1,2,4]triazin-4(3H)-one]",180 nM,79 nM,,279 nM,15%
"CCCn1c(Cc2ccc(C)cc2)nn2c(C3CCOCC3)ncc2c1=O [Example 4, 2-(4-Methylbenzyl)-3-propyl-7-(tetrahydro-2H-pyran-4-yl)imidazo[5,1-f][1,2,4]triazin-4(3H)-one]",83 nM,40 nM,,61 nM,9%
"Cc1ccc(Cc2nn3c(C4CCOCC4)ncc3c(=O)n2CC(C)C)cc1 [Example 5, 3-isobutyl-2-(4-methylbenzyl)-7-(tetrahydro-2H-pyran-4-yl)imidazo[5,1-f][1,2,4]triazin-4(3H)-one]",47 nM,52 nM,,38 nM,-3%
"Cc1ccc(Cc2nn3c(C4CCOCC4)ncc3c(=O)n2CC2CCCC2)cc1 [Example 6, 3-(Cyclopentylmethyl)-2-(4-methylbenzyl)-7-(tetrahydro-2H-pyran-4-yl)imidazo[5,1-f][1,2,4]triazin-4(3H)-one]",29 nM,63 nM,,4 nM,2%
"Cc1ccc(Cc2nn3c(C4CCOCC4)ncc3c(=O)n2CC2CCCCC2)cc1 [Example 7, 3-(Cyclohexylmethyl)-2-(4-methylbenzyl)-7-(tetrahydro-2H-pyran-4-yl)imidazo[5,1-f][1,2,4]triazin-4(3H)-one]",40 nM,26 nM,,11 nM,11%
"Cc1ccc(Cc2nn3c(C4CCOCC4)ncc3c(=O)n2CC2CC2)cc1 [Example 8, 3-(Cyclopropylmethyl)-2-(4-methylbenzyl)-7-(tetrahydro-2H-pyran-4-yl)imidazo[5,1-f][1,2,4]triazin-4(3H)-one]",63 nM,103 nM,,78 nM,9%
"Cc1ccc(Cc2nn3c(C4CCOCC4)ncc3c(=O)n2CC2CCOCC2)cc1 [Example 9, 2-(4-Methylbenzyl)-7-(tetrahydro-2H-pyran-4-yl)-3-((tetrahydro-2H-pyran-4-yl)methyl)imidazo[5,1-f][1,2,4]triazin-4(3H)-one]",583 nM,364 nM,,23 nM,12%
"Cc1ccc(Cc2nn3c(C4CCOCC4)ncc3c(=O)n2CC2CCC2)cc1 [Example 10, 3-(Cyclobutylmethyl)-2-(4-methylbenzyl)-7-(tetrahydro-2H-pyran-4-yl)imidazo[5,1-f][1,2,4]triazin-4(3H)-one]",245 nM,103 nM,,62 nM,-11%
"Cc1nn2c(C3CCOCC3)ncc2c(=O)n1Cc1cccc(F)c1 [Example 13, 3-(3-Fluorobenzyl)-2-methyl-7-(tetrahydro-2H-pyran-4-yl)imidazo[5,1-f][1,2,4]triazin-4(3H)-one]",127 nM,258 nM,,29 nM,-4%
"Cc1nn2c(C3CCOCC3)ncc2c(=O)n1Cc1ccc(F)cc1 [Example 14, 3-(4-Fluorobenzyl)-2-methyl-7-(tetrahydro-2H-pyran-4-yl)imidazo[5,1-f][1,2,4]triazin-4(3H)-one]",77 nM,134 nM,,35 nM,18%
"Cc1nn2c(C3CCOCC3)ncc2c(=O)n1Cc1ccccc1 [Example 15, 3-Benzyl-2-methyl-7-(tetrahydro-2H-pyran-4-yl)imidazo[5,1-f][1,2,4]triazin-4(3H)-one]",70 nM,162 nM,,17 nM,-13%
"Cc1nn2c(C3CCOCC3)ncc2c(=O)n1Cc1ccccc1Cl [Example 16, 3-(2-Chlorobenzyl)-2-methyl-7-(tetrahydro-2H-pyran-4-yl)imidazo[5,1-f][1,2,4]triazin-4(3H)-one]",118 nM,220 nM,,20 nM,11%
"Cc1nn2c(C3CCOCC3)ncc2c(=O)n1Cc1cccc(Cl)c1 [Example 17, 3-(3-Chlorobenzyl)-2-methyl-7-(tetrahydro-2H-pyran-4-yl)imidazo[5,1-f][1,2,4]triazin-4(3H)-one]",63 nM,159 nM,,14 nM,5%
"Cc1cccc(Cn2c(C)nn3c(C4CCOCC4)ncc3c2=O)c1 [Example 18, 2-Methyl-3-(3-methylbenzyl)-7-(tetrahydro-2H-pyran-4-yl)imidazo[5,1-f][1,2,4]triazin-4(3H)-one]",265 nM,188 nM,,20 nM,-30%
"COc1cccc(Cn2c(C)nn3c(C4CCOCC4)ncc3c2=O)c1 [Example 19, 3-(3-Methoxybenzyl)-2-methyl-7-(tetrahydro-2H-pyran-4-yl)imidazo[5,1-f][1,2,4]triazin-4(3H)-one]",115 nM,259 nM,,52 nM,4%
"Cc1nn2c(C3CCOCC3)ncc2c(=O)n1Cc1ccccc1F [Example 20, 3-(2-Fluorobenzyl)-2-methyl-7-(tetrahydro-2H-pyran-4-yl)imidazo[5,1-f][1,2,4]triazin-4(3H)-one]",54 nM,139 nM,,15 nM,21%
"Cc1ccccc1Cn1c(C)nn2c(C3CCOCC3)ncc2c1=O [Example 21, 2-Methyl-3-(2-methylbenzyl)-7-(tetrahydro-2H-pyran-4-yl)imidazo[5,1-f][1,2,4]triazin-4(3H)-one]",367 nM,454 nM,,37 nM,13%
"Cc1ccc(Cn2c(C)nn3c(C4CCOCC4)ncc3c2=O)cc1 [Example 22, 2-Methyl-3-(4-methylbenzyl)-7-(tetrahydro-2H-pyran-4-yl)imidazo[5,1-f][1,2,4]triazin-4(3H)-one]",58 nM,66 nM,,77 nM,18%
"O=c1c2cnc(C3CCOCC3)n2ncn1Cc1cccc(F)c1 [Example 27, 3-(3-Fluorobenzyl)-7-(tetrahydro-2H-pyran-4-yl)imidazo[5,1-f][1,2,4]triazin-4(3H)-one]",,,,436 nM,17%
"O=c1c2cnc(C3CCOCC3)n2ncn1CC1CCCC1 [Example 28, 3-(Cyclopentylmethyl)-7-(tetrahydro-2H-pyran-4-yl)imidazo[5,1-f][1,2,4]triazin-4(3H)-one]",,,,86 nM,10%
